Experimental data taken from article PMC7956625, “Optimization and Anti-Cancer Properties of Fluoromethylketones as Covalent Inhibitors for Ubiquitin C-Terminal Hydrolase L1” (Molecules, 2021).
“Also recorded” adds a separate entry of the source. Where two headings read alike, the source gives them in different places. Where a SMILES comes first, the peptide text is derived from it. The star is where a group is joined. Cbz = O=C(OCc1ccccc1)*; CH2F = FC*

Experiments:
UCHL1 [1] = molecular target: T1, UCHL1 (Homo sapiens, UniProt P09936); experiment: Time-dependent inhibitor analysis (kinact/KI); type: biochemical; parameters: made in house
T1 sequence (P09936 1-223): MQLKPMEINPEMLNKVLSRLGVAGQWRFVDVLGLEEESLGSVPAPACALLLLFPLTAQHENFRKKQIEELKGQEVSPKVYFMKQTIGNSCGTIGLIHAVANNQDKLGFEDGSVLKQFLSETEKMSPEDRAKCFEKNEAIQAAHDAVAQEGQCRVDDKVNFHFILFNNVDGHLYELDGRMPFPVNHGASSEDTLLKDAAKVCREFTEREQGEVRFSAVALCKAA
Procedure: Irreversible covalent inhibitors may be further characterized by determining the reversible binding constant (KI) as well as the rate of the covalent bond formation under saturating conditions (kinact). By determining the IC50 over the course of various timepoints, the pseudo first-order rate constant (kobs) could be calculated. […] The % activity of each inhibitor concentration was the plotted vs. time of pre-incubation and the slope of this plot is the pseudo first-order rate constant (kobs) for inhibition at each concentration. The kobs was plotted as a function of inhibitor concentration and then fit to the equation Y = kinactX/(KI + X) to calculate kinact, KI and kinact/KI as described by Resnick et al..

SW1271 cells [2] = experiment: SW1271 cell viability assay; type: cell-based; conditions: 100 µM, 24 h
Procedure: UCHL1 is a key promoter of cell invasion and metastasis in small cell lung cancer but not necessarily required for cell viability or proliferation. Thus, we chose to assess the efficacy of targeting UCHL1 using the SW1271 small cell lung cancer cell line. […] The Ub-ABP assay was used to confirm on target engagement of UCHL1 within these cells.
Luciferase-constructed cancer cells were seeded in 96-well plates at 10,000 cells/well with the compounds at the indicated concentrations. DMSO was used as vehicle control. Luminescence readings were acquired after adding 1% D-luciferin (GoldBio, St. Louis, MO, USA) after 24 h. Cell viability was determined by the ratio of luminescence reading compared to the one at 0 h, and normalized to vehicle control.

UCHL1 [3] = molecular target: T1, UCHL1; experiment: Fluorescence-based Ub-Rho deubiquitinase activity assay; type: biochemical; parameters: made in house; conditions: for IC50: 3 h of preincubation with UCHL1, technical triplicate, averages
Procedure: Thus, a 3-h preincubation period was selected for the structure-activity relationship (SAR) comparison of all analogs to ensure full reaction time and for consistent comparison of activity against UCHL1 within the scaffold. […] A 10 mM stock solution was made for each inhibitor in DMSO, then a dilution of 600 µM in reaction buffer was made followed eight by 1:1 serial dilutions. […] These were allowed to incubate, while sealed, for the 3 h at room temperature. […] The % activity was plotted as a function of inhibitor concentration and the data was fitted with non-linear regression analysis to calculate the IC50 values. Errors are reported as the 95% confidence interval calculated from experiments collected in technical triplicate.

UCHL3 = molecular target: T2, UCHL3 (Homo sapiens, UniProt P15374); experiment: as above; type: biochemical; parameters: His (N); made in house; conditions: top concentration of 200 µM; Figure S1
T2 sequence (P15374 1-230): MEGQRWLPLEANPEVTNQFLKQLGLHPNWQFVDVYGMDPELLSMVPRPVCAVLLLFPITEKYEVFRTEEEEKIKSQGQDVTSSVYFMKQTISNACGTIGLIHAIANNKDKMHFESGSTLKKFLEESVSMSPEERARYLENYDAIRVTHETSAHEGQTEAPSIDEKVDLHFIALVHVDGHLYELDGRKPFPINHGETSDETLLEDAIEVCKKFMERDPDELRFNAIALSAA
Procedure: The in vitro inhibition of UCHL1 was determined by monitoring the cleavage of rhodamine 110 from substrate Rhodamine110-ubiquitin (Ub-Rho). […]. Thus, a 3-h preincubation period was selected for the structure-activity relationship (SAR) comparison of all analogs to ensure full reaction time and for consistent comparison of activity against UCHL1 within the scaffold. […]. The assay was performed in black 384-well plates (Catalog #12566624, Fisher, Waltham, MA, USA). DUB stock solutions were diluted in reaction buffer (50 mm Tris pH 7.6, 0.5 mm EDTA, 5 mm DTT, 0.1 % (w/v) BSA) to a concentration of 2.5 nM for UCHL1 or 0.025 nM for UCHL3. […] Plates were read immediately and fluorescence of cleaved Rhodamine 110 fluorophore was monitored at λex = 485 nm, λem = 535 nm continuously for 20 min on a Synergy Neo2 instrument (BioTek, Winooski, VT, USA) The raw data was loaded into GraphPad Prism 8 (GraphPad Software, San Diego, CA, USA; www.graphpad.com, accessed on 12 January 2021) and the slope of the linear portion of the fluorescence vs. time curves was calculation for each inhibitor concentration and % activity of the enzyme was determined compared to DMSO-treated controls. […] Errors are reported as the 95% confidence interval calculated from experiments collected in technical triplicate.

SW1271 cells [4] = experiment: Scratch wound healing cell migration assay; type: cell-based; conditions: 100 µM, 24 h
Procedure: The same experiments were performed on wild type SW1271 cells treated with fluoromethylketone analogs. Molecules 1 and 34 were first assessed for their effect on cell viability at 100 µM to determine if any observed reduction in cell viability may influence the migration assays (Figure 9E). […] Due to the slow reactive nature of the inhibitor and the modest potency the anti-migratory efficacy of these analogs may be improved with longer duration of treatment or increasing the frequency of treatment. Further studies are underway to elucidate the role UCHL1 plays in the migratory cellular pathways using both genetic depletion and inhibitor approaches.
Wild-type or shRNA treated UCHL1 knockdown SW1271 cells were seeded in 12-well plates at 1 million cells/well. The cells were cultured overnight to grow as a confluent single layer. The cross-style wounds were created using pipet tips to scratch on the single layer of cells. The compounds were prepared in full growth media at the desired concentrations and added after the wounds were created. DMSO was used as the vehicle control. Photos of the wounds were captured immediately after adding treatments at 0 h. Photos of the wounds were captured at 0 and 24 h. The areas of cross-style wounds were quantified using Image J 1.52a software. The migration rate (%) was defined as the percentage of area at each timepoint compared to the one at 0 h.

| Compound | improvement of KI compared with 1 (UCHL1 [1]) | kinact (UCHL1 [1]) [s⁻¹] | kinact/KI (UCHL1 [1]) [M⁻¹ s⁻¹] | Ki (UCHL1 [1]; reversible binding constant of covalent inhibition, read-out: KI) [µM] | SW1271 cell viability (SW1271 cells [2]) | IC50 (UCHL1 [3]; read-out: IC50) [µM] | fold more active than 1 versus UCHL1 (UCHL1 [3]; IC50 comparison, 3 h preincubation) | activity versus UCHL3 (UCHL3) | migration of SW1271 cells compared to DMSO control (SW1271 cells [4]) | Ki (UCHL1 [1]) [µM] | IC50 (UCHL1 [3]; IC50 (µM)) [µM] |
| --- | --- | --- | --- | --- | --- | --- | --- | --- | --- | --- | --- |
| C#Cc1ccc(COC(=O)N[C@H](C(=O)N[C@@H](C)C(=O)N[C@@H](CCC(=O)OC)C(=O)CF)C(C)C)cc1 [Cpd 34] | greater than 3 fold | 0.0136 | 810 | 16.8 | no effect on the cell viability; also recorded: did not reduce SW1271 cell viability; also recorded: neither 1 nor 34 displayed cytotoxic effect; also recorded: does not exhibit any cellular toxicity | 7.7 | approximately 3 fold | no observable activity | significantly reduced the ability of the cells to migrate; also recorded: anti-migratory properties |  |  |
| COC(=O)CC[C@H](NC(=O)[C@H](C)NC(=O)[C@@H](NC(=O)OCc1ccccc1)C(C)C)C(=O)CF [Cpd 1, benzyloxycarbonyl-Val-Ala-Glu(γ-methoxy)-fluoromethylketone] (Cbz-Val-Ala-Glu(OMe)-CH2F) |  |  |  |  | no effect on the cell viability; also recorded: neither 1 nor 34 displayed cytotoxic effect |  |  | no activity | the same reduction of migratory ability was not observed | 60 | 24 |
